Marks after values point to notes of the source that are not given here.
Experiments:
lyase from M. costata = assay: Relative degrading rates of the lyase from M. costata towards various substrates; type: biochemical, Morchella costata; settings: for activity (maltotetraose as 100%): purified fungal lyase, section B.1.4.3; for degradation (AF detectable on TLC plates): incubated for 48 h
lyase from M. vulgaris = assay: Relative degrading rates of the lyase from M. vulgaris towards various substrates; type: biochemical, Morchella vulgaris; settings: for Activity (%) (maltotetraose = 100%): all substrates 10 mg ml^−1; for degradation (AF detectable on TLC plates): incubated for 48 h
Procedure: The activity observed for maltotetraose is treated as 100%. The final concentration of all substrates was 10 mg ml^−1.

[1] = tested on: α-1,4-glucan lyase from the parasite-free red seaweed Gracilariopsis lemaneiformis; assay: Degradation rates of the Californian algal lyase on various substrates; type: biochemical; settings: for AF released: substrate 10 mg/ml, pH 3.8, 40 min at 45° C.
Procedure: Reaction conditions: The reaction mixture contained 10 mM of HOAc-NaOAc (pH 3.8). The substrate concentration was 10 mg/ml. The final volume was 100 ul after the addition of lyase and water. The reaction time was 40 min at 45° C.

α-1,4-glucan lyase = assay: Activity of the lyase towards maltosaccharides (summary); type: biochemical
[2] = tested on: lyase from the fungal infected Gracilariopsis lemaneiformis; assay: Reaction rates with glycogen and amylopectin, lyase from fungal infected Gracilariopsis lemaneiformis; type: biochemical
[3] = tested on: lyase purified from the fungal infected algae; assay: Effect of alcohols on activity and stability of the lyase (AF yield); type: biochemical, fungal infected Gracilariopsis lemaneiformis
Procedure: 1-propanol, 2-propanol and 1-butanol were tested at the following concentrations (0%, 1%, 5% and 10%).
Ethanol was tested at the following concentrations (0, 1, 3, 5, 7, 9, 11, 13, 15%).

## amylose
Lyase from M. costata
  degradation by the fungal lyase: also degraded

## OC[C@H]1O[C@H](O[C@H]2[C@H](O)[C@@H](O)[C@@H](O[C@H]3[C@H](O)[C@@H](O)[C@@H](O[C@H]4[C@H](O)[C@@H](O)C(O)O[C@@H]4CO)O[C@@H]3CO)O[C@@H]2CO)[C@H](O)[C@@H](O)[C@@H]1O (stereo partly shown) [Maltotetraose, maltotetraose]
Lyase from M. costata
  activity (maltotetraose as 100%): 100%
Lyase from M. costata; substrate 2 mg/ml
  relative degrading rate (maltotetraose = 100%): 100%
Lyase from M. costata; substrate 4 mg/ml
  relative degrading rate (maltotetraose = 100%): 100%
Lyase from M. costata; substrate 10 mg/ml
  relative degrading rate (maltotetraose = 100%): 100%
Lyase from M. vulgaris
  Activity (%) (maltotetraose = 100%): 100.0%
[1]
  AF released: 670 nmol
α-1,4-glucan lyase
  lyase activity towards maltosaccharide: highest activity

## OC[C@H]1O[C@@H]2O[C@H]3[C@H](O)[C@@H](O)[C@@H](O[C@H]4[C@H](O)[C@@H](O)[C@@H](O[C@H]5[C@H](O)[C@@H](O)[C@@H](O[C@H]6[C@H](O)[C@@H](O)[C@@H](O[C@H]7[C@H](O)[C@@H](O)[C@@H](O[C@H]8[C@H](O)[C@@H](O)[C@@H](O[C@H]1[C@H](O)[C@H]2O)O[C@@H]8CO)O[C@@H]7CO)O[C@@H]6CO)O[C@@H]5CO)O[C@@H]4CO)O[C@@H]3CO [beta-cyclodextrin]
Lyase from M. costata
  degradation (AF detectable on TLC plates): no AF detectable
Lyase from M. vulgaris
  degradation (AF detectable on TLC plates): no AF detectable
[1]
  degradation by the lyase: not able to degrade

## OC[C@H]1O[C@H](O[C@H]2[C@H](O)[C@@H](O)[C@@H](O[C@H]3[C@H](O)[C@@H](O)[C@@H](O[C@H]4[C@H](O)[C@@H](O)[C@@H](O[C@H]5[C@H](O)[C@@H](O)[C@@H](O[C@H]6[C@H](O)[C@@H](O)[C@@H](O[C@H]7[C@H](O)[C@@H](O)C(O)O[C@@H]7CO)O[C@@H]6CO)O[C@@H]5CO)O[C@@H]4CO)O[C@@H]3CO)O[C@@H]2CO)[C@H](O)[C@@H](O)[C@@H]1O (stereo partly shown) [Maltoheptaose, maltoheptaose]
Lyase from M. costata
  activity (maltotetraose as 100%): 76%
Lyase from M. costata; substrate 2 mg/ml
  relative degrading rate (maltotetraose = 100%): 82.2%
Lyase from M. costata; substrate 4 mg/ml
  relative degrading rate (maltotetraose = 100%): 81.5%
Lyase from M. costata; substrate 10 mg/ml
  relative degrading rate (maltotetraose = 100%): 75.7%
Lyase from M. vulgaris
  Activity (%) (maltotetraose = 100%): 73.9%
[1]
  AF released: 865 nmol
α-1,4-glucan lyase
  lyase activity towards maltosaccharide: lower activity

## OC[C@H]1O[C@H](O[C@@H]2[C@@H](O)[C@@H](O[C@@H]3[C@@H](O)[C@@H](O[C@H]4[C@H](O)[C@@H](CO)OC(O)[C@@H]4O)O[C@H](CO)[C@H]3O)O[C@H](CO)[C@H]2O)[C@H](O)[C@@H](O)[C@@H]1O (stereo partly shown) [nigerotetraose]
Lyase from M. costata
  degradation (AF detectable on TLC plates): no AF detectable
Lyase from M. vulgaris
  degradation (AF detectable on TLC plates): no AF detectable
[1]
  degradation by the lyase: not able to degrade

## OC[C@H]1O[C@H](O[C@H]2O[C@H](CO)[C@@H](O)[C@H](O)[C@H]2O)[C@H](O)[C@@H](O)[C@@H]1O [Trehalose]
Lyase from M. costata
  degradation (AF detectable on TLC plates): no AF detectable
Lyase from M. vulgaris
  degradation (AF detectable on TLC plates): no AF detectable
[1]
  degradation by the lyase: not able to degrade

## OCC1OC(OC2C(CO)OC(OC3C(CO)OC(O)C(O)C3O)C(O)C2O)C(O)C(O)C1O (stereo not shown) [Maltotriose, maltotriose]
Lyase from M. costata
  activity (maltotetraose as 100%): 56%
Lyase from M. costata; substrate 2 mg/ml
  relative degrading rate (maltotetraose = 100%): 40.6%
Lyase from M. costata; substrate 4 mg/ml
  relative degrading rate (maltotetraose = 100%): 58.6%
Lyase from M. costata; substrate 10 mg/ml
  relative degrading rate (maltotetraose = 100%): 56.0%
Lyase from M. vulgaris
  Activity (%) (maltotetraose = 100%): 49.8%
[1]
  AF released: 654 nmol
α-1,4-glucan lyase
  lyase activity towards maltosaccharide: lower activity

## OC[C@H]1O[C@H](O[C@H]2[C@H](O)[C@@H](O)[C@@H](O[C@H]3[C@H](O)[C@@H](O)[C@@H](O[C@H]4[C@H](O)[C@@H](O)[C@@H](O[C@H]5[C@H](O)[C@@H](O)[C@@H](O[C@H]6[C@H](O)[C@@H](O)C(O)O[C@@H]6CO)O[C@@H]5CO)O[C@@H]4CO)O[C@@H]3CO)O[C@@H]2CO)[C@H](O)[C@@H](O)[C@@H]1O (stereo partly shown) [Maltohexaose, maltohexaose]
Lyase from M. costata
  activity (maltotetraose as 100%): 97%
Lyase from M. costata; substrate 2 mg/ml
  relative degrading rate (maltotetraose = 100%): 86.6%
Lyase from M. costata; substrate 4 mg/ml
  relative degrading rate (maltotetraose = 100%): 98.2%
Lyase from M. costata; substrate 10 mg/ml
  relative degrading rate (maltotetraose = 100%): 95.9%
Lyase from M. vulgaris
  Activity (%) (maltotetraose = 100%): 92.4%
[1]
  AF released: 826 nmol

## OC[C@H]1O[C@H](O[C@H]2[C@H](O)[C@@H](CO)OC(O)[C@@H]2O)[C@H](O)[C@@H](O)[C@@H]1O (stereo partly shown) [nigerose]
Lyase from M. costata
  degradation (AF detectable on TLC plates): no AF detectable
Lyase from M. vulgaris
  degradation (AF detectable on TLC plates): no AF detectable
[1]
  degradation by the lyase: slow rate

## OC[C@H]1O[C@@H]2O[C@H]3[C@H](O)[C@@H](O)[C@@H](O[C@H]4[C@H](O)[C@@H](O)[C@@H](O[C@H]5[C@H](O)[C@@H](O)[C@@H](O[C@H]6[C@H](O)[C@@H](O)[C@@H](O[C@H]7[C@H](O)[C@@H](O)[C@@H](O[C@H]1[C@H](O)[C@H]2O)O[C@@H]7CO)O[C@@H]6CO)O[C@@H]5CO)O[C@@H]4CO)O[C@@H]3CO [alpha-cyclodextrin]
Lyase from M. costata
  degradation (AF detectable on TLC plates): no AF detectable
Lyase from M. vulgaris
  degradation (AF detectable on TLC plates): no AF detectable
[1]
  degradation by the lyase: not able to degrade

## O=[N+]([O-])c1ccc(OC2OC(CO)C(OC3OC(CO)C(OC4OC(CO)C(OC5OC(CO)C(OC6OC(CO)C(OC7OC(CO)C(OC8OC(CO)C(O)C(O)C8O)C(O)C7O)C(O)C6O)C(O)C5O)C(O)C4O)C(O)C3O)C(O)C2O)cc1 (stereo not shown)
Lyase from M. costata
  degradation by the fungal lyase: failed to degrade
  degradation (AF detectable on TLC plates): no AF detectable
Lyase from M. vulgaris
  degradation (AF detectable on TLC plates): no AF detectable

## Glycogen
Lyase from M. costata
  degradation by the fungal lyase: also degraded
Lyase from M. costata; substrate 10 mg/ml
  relative degrading rate (maltotetraose = 100%): 128.5%
Lyase from M. vulgaris
  Activity (%) (maltotetraose = 100%): 183.3%
[1]
  substrate concentration at which half of the maximal velocity rate was reached: 3.37 mg/mL
  AF released: 592 nmol
[2]; 25 C.
  ratio of relative reaction rates between Glycogen and Amylopectin (%): 72.4%
  relative reaction rates: 0.592^a
[2]; 30 C.
  ratio of relative reaction rates between Glycogen and Amylopectin (%): 79.8%
  relative reaction rates: 0.904^a
[2]; 45 C.
  ratio of relative reaction rates between Glycogen and Amylopectin (%): 158.9%
  relative reaction rates: 1.861^a

## pullulan
Lyase from M. costata
  degradation (AF detectable on TLC plates): no AF detectable
Lyase from M. vulgaris
  degradation (AF detectable on TLC plates): no AF detectable
[1]
  degradation by the lyase: not able to degrade

## CC(C)O [2-propanol]
[3]; 1%, after 10 days incubation
  increase of AF yield: 20%
[3]; tested at 0%, 1%, 5% and 10%
  optimal concentration for AF yield: 1%

## CCO [Ethanol]
[3]; 3%, 10 days incubation
  increase of AF yield: 16%
[3]; 5%, 7 days incubation
  increase of AF yield: 12%
[3]; 7 days incubation, tested 0-15%
  optimal concentration for AF yield: 5%
[3]; 10 days incubation, tested 0-15%
  optimal concentration for AF yield: 3%

## OC[C@H]1O[C@H](OC[C@H]2OC(O)[C@H](O)[C@@H](O)[C@@H]2O)[C@H](O)[C@@H](O)[C@@H]1O (stereo partly shown) [isomaltose]
Lyase from M. costata
  degradation (AF detectable on TLC plates): no AF detectable
Lyase from M. vulgaris
  degradation (AF detectable on TLC plates): no AF detectable
[1]
  degradation by the lyase: not able to degrade

## Soluble starch
Lyase from M. costata; substrate 10 mg/ml
  relative degrading rate (maltotetraose = 100%): 92.9%
Lyase from M. vulgaris
  Activity (%) (maltotetraose = 100%): 100.5%

## O=[N+]([O-])c1ccc(O[C@H]2O[C@H](CO)[C@@H](O[C@H]3O[C@H](CO)[C@@H](O[C@H]4O[C@H](CO)[C@@H](O[C@H]5O[C@H](CO)[C@@H](O[C@H]6O[C@H](CO)[C@@H](O[C@H]7O[C@H](CO)[C@@H](O[C@H]8O[C@H](CO)[C@@H](O)[C@H](O)[C@H]8O)[C@H](O)[C@H]7O)[C@H](O)[C@H]6O)[C@H](O)[C@H]5O)[C@H](O)[C@H]4O)[C@H](O)[C@H]3O)[C@H](O)[C@H]2O)cc1 [p-nitrophenyl α-D-maltoheptaose]
Lyase from M. costata
  degradation by the fungal lyase: degraded

## OC[C@H]1O[C@@H]2O[C@H]3[C@H](O)[C@@H](O)[C@@H](O[C@H]4[C@H](O)[C@@H](O)[C@@H](O[C@H]5[C@H](O)[C@@H](O)[C@@H](O[C@H]6[C@H](O)[C@@H](O)[C@@H](O[C@H]7[C@H](O)[C@@H](O)[C@@H](O[C@H]8[C@H](O)[C@@H](O)[C@@H](O[C@H]9[C@H](O)[C@@H](O)[C@@H](O[C@H]1[C@H](O)[C@H]2O)O[C@@H]9CO)O[C@@H]8CO)O[C@@H]7CO)O[C@@H]6CO)O[C@@H]5CO)O[C@@H]4CO)O[C@@H]3CO [gama-cyclodextrin]
Lyase from M. costata
  degradation (AF detectable on TLC plates): no AF detectable
Lyase from M. vulgaris
  degradation (AF detectable on TLC plates): no AF detectable
[1]
  degradation by the lyase: not able to degrade

## 1-propanol
[3]; 1% (v/v), 1 day
  AF yield: 80 µmol
[3]; 1% (v/v), 3 days
  AF yield: 280 µmol
[3]; 1% (v/v), 6 days
  AF yield: 530 µmol
[3]; 1% (v/v), 10 days
  AF yield: 803 µmol
[3]; 5% (v/v), 1 day
  AF yield: 115 µmol
[3]; 5% (v/v), 3 days
  AF yield: 367 µmol
[3]; 5% (v/v), 6 days
  AF yield: 605 µmol
[3]; 5% (v/v), 10 days
  AF yield: 853 µmol
[3]; 5%, after 6 days of incubation
  increase of AF yield: 34%
[3]; 10% (v/v), 1 day
  AF yield: 107 µmol
[3]; 10% (v/v), 3 days
  AF yield: 307 µmol
[3]; 10% (v/v), 6 days
  AF yield: 456 µmol
[3]; 10% (v/v), 10 days
  AF yield: 583 µmol
[3]; tested at 0%, 1%, 5% and 10%
  optimal concentration for AF yield: 5%

## 1-butanol
[3]; 5%, after 3-day incubation
  increase of AF yield: 52%
[3]; tested at 0%, 1%, 5% and 10%
  optimal concentration for AF yield: 5%

## OC[C@H]1O[C@H](OC[C@H]2O[C@H](O[C@H]3[C@H](O)[C@@H](O)C(O)O[C@@H]3CO)[C@H](O)[C@@H](O)[C@@H]2O)[C@H](O)[C@@H](O)[C@@H]1O (stereo partly shown) [panose]
Lyase from M. costata
  degradation (AF detectable on TLC plates): no AF detectable
Lyase from M. vulgaris
  degradation (AF detectable on TLC plates): no AF detectable
[1]
  degradation by the lyase: slow rate
